Experimental data published in US4851572A, “γ-L-glutamyl-4-nitroanilide derivatives and process for determining γ-GTP activity using the same” (Wako Pure Chemical Industries, Ltd., priority 1987, dated 1989).
In brackets after ≈: the same amount, converted by molar mass. Like-named read-outs stand apart in the source and are kept apart here.

Tests used:
[1] = molecular target: T1, γ-GTP (human serum) (Homo sapiens, UniProt P19440); assay: Measurement of γ-GTP activity with the substrate, human serum sample (rate assay, 410 nm); assay type: biochemical; settings: relative to Comparative Example 1 taken as 100, 37° C., 5 min
T1 construct: As samples, there were used human serum; from tissue; host or cells: human serum
Protocol: (§1) Measurement of γ-GTP activity
(§2) 100 Millimols of tris(hydroxymethyl)aminomethane and 60 mmols of glycylglycine were added in 800 ml of deionized water, and pH of its solution was adjusted to 8.2 (at 25° C.) with hydrochloric acid, after which the resulting solution was made up to 1 liter with deionized water.
(§3) In deionized water was dissolved 15 mmols of the γ-L-glutamyl-3-hydroxymethyl-4-nitroanilide obtained in Example 1 to make a total volume of 1 liter.
(§4) As samples, there were used human serum and 7% aqueous bovine albumin solutions containing γ-GTP derived from porcine kidney or bovine kidney (hereinafter abbreviated as parcine sample and bovine sample, respectively).
(§5) To 50 μl of each sample was added 2.0 ml of the buffer solution .circle.1 , followed by preincubation at 37° C. for 3 minutes, and 0.5 ml of the substrate solution .circle.2 was added. After sufficient mixing, the resulting mixture was allowed to stand for 1 minute, after which the increase rate of absorbance at 410 nm was measured, and the γ-GTP activity value (IU/l) in the sample was calculated from the molecular absorption coefficient (7.6×10^6 cm^2 /mol) of 3-hydroxymethyl-4-nitroaniline generated.
(§6) 100 mmols of tris(hydroxymethyl)aminomethane and 60 mmols of glycylglycine were added in 800 ml of deionized water, and pH of its solution was adjusted to 8.2 (at 25° C.) with hydrochloric acid, after which the resulting solution was made up to 1 liter with deionized water.
(§7) In deionized water was dissolved 15 mmols of the γ-L-glutamyl-3-(β-hydroxyethyl)-4-nitroanilide obtained in Example 3 to make a total volume of 1 liter.
(§8) The same samples as in Example 5 were used.
as §5, with “(7.3×10^6” for “(7.6×10^6”, “3-(β-hydroxyethyl)-4-nitroaniline” for “3-hydroxymethyl-4-nitroaniline”, “generated. […]” for “generated.”
as §5, with “(8.8×10^6” for “(7.6×10^6”, “p-nitroaniline” for “3-hydroxymethyl-4-nitroaniline”, “generated. […]” for “generated.”

[2] = molecular target: T2, γ-GTP derived from porcine kidney (Sus scrofa, UniProt P20735); assay: Measurement of γ-GTP activity with the substrate, porcine sample (rate assay, 410 nm); assay type: biochemical; settings: relative to Comparative Example 1 taken as 100, 37° C., 5 min
T2 construct: γ-GTP derived from porcine kidney or bovine kidney; from tissue; host or cells: porcine kidney
Protocol: as §1, §2, §3, §4, §5, §6, §7, §8
as §5, with “(7.3×10^6” for “(7.6×10^6”, “3-(β-hydroxyethyl)-4-nitroaniline” for “3-hydroxymethyl-4-nitroaniline”, “generated. […]” for “generated.”
as §5, with “(8.8×10^6” for “(7.6×10^6”, “p-nitroaniline” for “3-hydroxymethyl-4-nitroaniline”, “generated. […]” for “generated.”

[3] = molecular target: T3, γ-GTP derived from bovine kidney (Bos taurus, UniProt G3N2D8); assay: Measurement of γ-GTP activity with the substrate, bovine sample (rate assay, 410 nm); assay type: biochemical; settings: relative to Comparative Example 1 taken as 100, 37° C., 5 min
T3 construct: γ-GTP derived from porcine kidney or bovine kidney; from tissue; host or cells: bovine kidney
Protocol: as §1, §2, §3, §4, §5, §6, §7, §8
as §5, with “(7.3×10^6” for “(7.6×10^6”, “3-(β-hydroxyethyl)-4-nitroaniline” for “3-hydroxymethyl-4-nitroaniline”, “generated. […]” for “generated.”
as §5, with “(8.8×10^6” for “(7.6×10^6”, “p-nitroaniline” for “3-hydroxymethyl-4-nitroaniline”, “generated. […]” for “generated.”

[4] = Solubility of the substrates in reagent solutions; assay type: physicochemical; settings: pH 8.2, reagent solution (buffer:substrate solution 4:1)
Source text: In Table 2 are shown the solubility of the substrates for measuring γ-GTP activity used in Examples 5 and 6 and Comparative Examples 1 and 2 in reagent solutions (reagent solutions being obtained by mixing each buffer solution and each substrate solution in the ratio of 4:1), and the results of stability test on the substrate solutions in the individual cases.

[5] = test system: γ-GTP; assay: Difference in reactivity with γ-GTPs derived from various sources (human serum, porcine, bovine); assay type: biochemical; settings: for Difference between max. and min. activity values: human serum, porcine and bovine samples, relative values, Comparative Example 1 = 100
Protocol: as §4, §5
as §5, with “(7.3×10^6” for “(7.6×10^6”, “3-(β-hydroxyethyl)-4-nitroaniline” for “3-hydroxymethyl-4-nitroaniline”
as §5, with “(8.8×10^6” for “(7.6×10^6”, “p-nitroaniline” for “3-hydroxymethyl-4-nitroaniline”
as §5, with “subdrate” for “substrate”, “([…]” for “(7.6×10^6 cm^2”, “3-carboxy-4-nitroaniline” for “3-hydroxymethyl-4-nitroaniline”
In Table 1, the values of Comparative Example 2 and Examples 5 and 6 are relative γ-GTP activity values taking those of Comparative Example 1 as 100. The γ-GTP activity values (IU/l) were calculated from an absorbance change (ΔE/5 min) at 410 nm for 5 minutes after initiation of the reaction.

[6] = test system: γ-GTP (porcine kidney); settings: reported by Leslie M. Shaw (Clinical Chemistry, 23, 79 (1977)); cited from earlier work
[7] = background statement, cited from earlier work
[8] = molecular target: T4, γ-GTP (human sera) (Homo sapiens, UniProt P19440); assay: Measurement of γ-GTP activity in human sera with Hitachi automatic analyzer Model 7150 (precision, correlation); assay type: biochemical; settings: for Average values (measured values of human sera): n=50 human sera; for Average / Coefficient of variation (C.V.) / Maximum / Minimum: within-run precision
T4 construct: heavy and light chain from one precursor), not purified
Protocol: (§9) The buffer solution prepared in Example 5 was used.
(§10) In deionized water was dissolved 10 mmols of the γ-L-glutamyl-3-hydroxymethyl-4-nitroanilide obtained in Example 4 to make a total volume of 1 liter.
Fifty human sera were used as samples.
The buffer solution prepared in Comparative Example 2 was used.
The substrate solution prepared in Comparative Example 2 was used.
The same samples as in Example 7 were used.
Measurement was carried out under the same conditions as in Example 7, except that among CHEMISTRY PARAMETERS in Table 4, R1 VOLUME was changed to [320][100][NO], […] to [80][20][NO], and K FACTOR to 7123 (ε=9.5).
0.125M Tris-HCL buffer (pH 7.8, at 37° C., containing 96 mM glycylglycine and 13 mM magnesium chloride).
A 0.1N hydrochloric acid solution containing 20 mM of γ-L-glutamyl-4-nitroanilide.
Measurement was carried out under the same conditions as in Example 7, except that among CHEMISTRY PARAMETERS in Table 4, K FACTOR was changed to 6835 (ε=9.90).
In FIG. 1 is shown the correlation of the values measured for the individual human sera in Example 7 with those in Comparative Example 3. The coefficient of correlation, the regression equation, and the like, obtained by statistical processing, etc. are shown below.
In FIG. 2 is shown the correlation of the values measured for the individual human sera in Example 7 with those in Comparative Example 4. The coefficient of correlation, the regression equation, and the like, obtained by statistical processing, etc. are shown below.

[9] = molecular target: T1, γ-GTP (human serum); settings: reported by Leslie M. Shaw (Clinical Chemistry, 23, 79 (1977)); cited from earlier work
[10] = test system: γ-GTP (bovine kidney); assay: Km value, γ-GTP from bovine kidney; assay type: biochemical
Source text: (§11) In Table 3 are shown the results of measuring, by a conventional method, Km values of γ-L-glutamyl-3-hydroxymethyl-4-nitroanilide, which is a compound of this invention, for each of γ-GTPs derived from human serum, porcine kidney and bovine kidney.

[11] = test system: γ-GTP (porcine kidney); assay: Km value, γ-GTP from porcine kidney; assay type: biochemical
Source text: as §11
In Table 3 are also shown, for reference, Km values of γ-L-glutamyl-3-carboxy-4-nitroanilide and γ-L-glutamyl-p-nitroanilide reported by Leslie M. Shaw (Clinical Chemistry, 23, 79 (1977)).

[12] = molecular target: T2, γ-GTP derived from porcine kidney; assay: Calibration curve linearity with γ-GTP derived from porcine kidney in 7% aqueous bovine albumin solution; assay type: biochemical; settings: 7% aqueous bovine albumin solution containing porcine kidney γ-GTP
Protocol: as §9, §10

[13] = suitable pH range for determining γ-GTP activity; background statement; cited from earlier work

T4 sequence (P19440 whole entry): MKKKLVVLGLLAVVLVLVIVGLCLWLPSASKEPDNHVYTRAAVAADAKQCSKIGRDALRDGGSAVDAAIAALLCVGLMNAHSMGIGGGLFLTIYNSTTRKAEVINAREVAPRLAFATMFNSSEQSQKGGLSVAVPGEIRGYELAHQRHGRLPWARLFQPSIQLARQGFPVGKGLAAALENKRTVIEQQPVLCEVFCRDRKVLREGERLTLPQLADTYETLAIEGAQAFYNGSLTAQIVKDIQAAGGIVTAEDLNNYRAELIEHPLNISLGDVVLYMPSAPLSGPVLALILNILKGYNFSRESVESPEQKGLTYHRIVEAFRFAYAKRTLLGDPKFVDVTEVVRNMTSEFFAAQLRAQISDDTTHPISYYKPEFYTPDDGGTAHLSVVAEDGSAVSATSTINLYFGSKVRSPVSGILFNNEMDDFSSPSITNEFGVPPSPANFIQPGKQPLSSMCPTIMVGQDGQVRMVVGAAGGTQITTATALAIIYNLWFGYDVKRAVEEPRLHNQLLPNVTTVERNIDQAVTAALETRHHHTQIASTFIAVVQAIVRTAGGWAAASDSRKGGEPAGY
T1 sequence (P19440 1-380 limits assumed): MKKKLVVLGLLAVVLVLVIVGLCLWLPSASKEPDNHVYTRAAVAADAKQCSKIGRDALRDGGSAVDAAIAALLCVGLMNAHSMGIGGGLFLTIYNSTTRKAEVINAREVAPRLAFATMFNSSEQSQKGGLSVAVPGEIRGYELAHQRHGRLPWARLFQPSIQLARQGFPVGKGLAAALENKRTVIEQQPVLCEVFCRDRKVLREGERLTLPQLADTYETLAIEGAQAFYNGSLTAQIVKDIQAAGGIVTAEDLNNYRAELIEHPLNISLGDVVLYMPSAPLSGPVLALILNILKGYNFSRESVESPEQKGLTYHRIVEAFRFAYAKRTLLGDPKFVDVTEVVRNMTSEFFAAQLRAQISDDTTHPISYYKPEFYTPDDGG
T1 sequence (P19440 381-569 limits assumed): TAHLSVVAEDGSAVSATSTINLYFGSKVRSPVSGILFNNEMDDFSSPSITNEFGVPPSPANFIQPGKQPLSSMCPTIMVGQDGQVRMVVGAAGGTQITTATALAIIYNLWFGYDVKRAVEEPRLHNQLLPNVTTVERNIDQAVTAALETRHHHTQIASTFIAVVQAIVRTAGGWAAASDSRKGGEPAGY
T3 sequence (G3N2D8 1-379 limits assumed): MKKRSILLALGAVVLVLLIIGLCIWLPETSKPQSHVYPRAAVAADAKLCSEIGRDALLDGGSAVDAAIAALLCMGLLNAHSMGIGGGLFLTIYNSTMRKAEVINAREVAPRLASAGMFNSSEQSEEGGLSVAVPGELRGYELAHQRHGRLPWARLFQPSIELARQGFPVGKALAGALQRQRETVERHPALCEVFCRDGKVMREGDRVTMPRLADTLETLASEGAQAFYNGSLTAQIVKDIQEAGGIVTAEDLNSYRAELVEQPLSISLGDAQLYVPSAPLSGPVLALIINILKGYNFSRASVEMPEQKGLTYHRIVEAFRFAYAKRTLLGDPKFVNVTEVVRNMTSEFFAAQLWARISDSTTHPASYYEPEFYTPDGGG
T3 sequence (G3N2D8 380-568 limits assumed): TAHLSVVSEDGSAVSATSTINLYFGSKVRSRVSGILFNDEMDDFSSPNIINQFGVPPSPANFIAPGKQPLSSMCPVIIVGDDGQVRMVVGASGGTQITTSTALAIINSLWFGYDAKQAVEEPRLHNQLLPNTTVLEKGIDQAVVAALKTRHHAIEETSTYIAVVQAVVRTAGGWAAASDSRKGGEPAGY
T2 sequence (P20735 1-379 limits assumed): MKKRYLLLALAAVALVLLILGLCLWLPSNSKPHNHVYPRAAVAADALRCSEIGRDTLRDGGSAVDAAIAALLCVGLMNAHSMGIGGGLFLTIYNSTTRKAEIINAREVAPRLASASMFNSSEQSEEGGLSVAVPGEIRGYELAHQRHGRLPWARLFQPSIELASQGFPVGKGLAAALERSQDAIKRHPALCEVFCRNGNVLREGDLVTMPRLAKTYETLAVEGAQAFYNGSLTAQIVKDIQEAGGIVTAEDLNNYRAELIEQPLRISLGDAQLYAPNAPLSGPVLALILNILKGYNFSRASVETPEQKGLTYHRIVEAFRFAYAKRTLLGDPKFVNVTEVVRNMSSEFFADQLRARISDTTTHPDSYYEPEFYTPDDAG
T2 sequence (P20735 380-568 limits assumed): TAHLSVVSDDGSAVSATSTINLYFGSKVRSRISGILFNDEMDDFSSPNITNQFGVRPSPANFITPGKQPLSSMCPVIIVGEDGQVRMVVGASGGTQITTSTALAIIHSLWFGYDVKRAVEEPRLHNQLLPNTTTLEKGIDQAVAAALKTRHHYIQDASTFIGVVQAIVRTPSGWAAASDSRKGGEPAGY

relative γ-GTP activity value, human serum [1]	relative γ-GTP activity value, porcine sample [2]	relative γ-GTP activity value, bovine sample [3]	Solubility ([4]; 5° C.)	Average values (measured values of human sera) [8]	Compound	Difference between max. and min. activity values [5]	Km [6]	solubility and stability after dissolution versus γ-glutamyl-p-nitroanilide (in words) [7]	Km [9]	other results
95	87	85	10000 µM (≈ 3.11 mg/mL)		N[C@@H](CCC(=O)Nc1ccc([N+](=O)[O-])c(CCO)c1)C(=O)O [γ-L-glutamyl-3-(β-hydroxyethyl)-4-nitroanilide]	10				
103	127	94	≥ 100000 µM	106.72	N[C@@H](CCC(=O)Nc1ccc([N+](=O)[O-])c(C(=O)O)c1)C(=O)O [γ-L-glutamyl-3-carboxy-4-nitroanilide, reference compound]	33	1630 µM	much superior	1190 µM	difference in reactivity with γ-GTPs derived from various sources (in words) ([5]; various sources of γ-GTP): vary more widely in reactivity with γ-GTPs derived from various sources
					N[C@@H](CCC(=O)Nc1ccc([N+](=O)[O-])c(S(=O)(=O)O)c1)C(=O)O [γ-L-glutamyl-3-sulfo-4-nitroanilide]			much superior		
148	139	151	≥ 100000 µM	115.94	N[C@@H](CCC(=O)Nc1ccc([N+](=O)[O-])c(CO)c1)C(=O)O [γ-L-glutamyl-3-hydroxymethyl-4-nitroanilide]	12				Km [10]: 670 µM; Km [11]: 670 µM; linearity of calibration curve, upper limit [12]: about 6400 IU/l; Coefficient of correlation ([8]; Example 7 vs Comparative Example 3, n=50 human sera): 0.9998; Coefficient of correlation ([8]; Example 7 vs Comparative Example 4, n=50 human sera): 0.9998; within-run precision (in words) ([8]; Table 5): good precision; Average ([8]; sample 1, n=40): 66.4 IU/l; Coefficient of variation (C.V.) ([8]; sample 1, n=40): 0.95; Maximum ([8]; sample 1, n=40): 68 IU/l; Minimum ([8]; sample 1, n=40): 66 IU/l; Average ([8]; sample 2, n=40): 137.0 IU/l; Coefficient of variation (C.V.) ([8]; sample 2, n=40): 0.83; Maximum ([8]; sample 2, n=40): 139 IU/l; Minimum ([8]; sample 2, n=40): 134 IU/l
100	100	100		115.02	N[C@@H](CCC(=O)Nc1ccc([N+](=O)[O-])cc1)C(=O)O [γ-L-glutamyl-p-nitroanilide, reference compound]		1870 µM		1330 µM	solubility (in words) [13]: slightly soluble; Solubility ([4]; 37° C.): 5000 µM (≈ 1.34 mg/mL); stability (in words) ([7]; suitable pH range for dissolution): unstable
